Measurements: paper PMC4414571, “Peptides of Presenilin-1 Bind the Amyloid Precursor Protein Ectodomain and Offer a Novel and Specific Therapeutic Approach to Reduce ß-Amyloid in Alzheimer’s Disease” (PLoS ONE, 2015)
Entries after “also recorded” stand apart in the source; their conditions may differ. Where two headings read alike, the source gives them in different places. Ends that are not written are not given here.

Legend:
[1] = test system: NICD / γ-secretase in Jurkat cells; assay: NICD levels in extracts of Jurkat cells by ELISA (γ-secretase activity); conditions: 24 h, percent control
Procedure: Jurkat cells (Sigma) were cultured in RPMI 1640 medium supplemented with 10% FCS, 2 mM L-glutamine, penicillin and streptomycin at 37°C in the presence of 5% CO2. […] After harvesting the cells, extracts were prepared by sonication in lysis buffer (Cell Signaling Technologies) supplemented with 1mM PMSF and complete protease inhibitor cocktail (Roche). The solubilized extracts were then used in ELISA assays to determine NICD levels, as a measure of γ-secretase activity, using the PathScan Cleaved Notch 1 (Val 1744) sandwich ELISA kit (Cell Signaling Technologies) according to the manufactuer’s protocols.

[2] = target: T1, soluble ectodomain of APP (APPs, APP 695) (Homo sapiens, UniProt P05067); assay: Biolayer interferometry, biotinylated peptides on streptavidin biosensors vs purified soluble APP (APPs); format: binding; conditions: 30°C, biotinylated peptide on SA biosensors; for koff / kon / Kd: 1:1 model; for Kd: k off/k on, Kinetics Buffer (1X PBS, 0.002% Tween-20, 0.01% BSA)
T1 construct: host or cells: Sf9 insect cells (baculovirus), conditioned medium
T1 sequence (P05067 18-612 isoform P05067-4 limits assumed): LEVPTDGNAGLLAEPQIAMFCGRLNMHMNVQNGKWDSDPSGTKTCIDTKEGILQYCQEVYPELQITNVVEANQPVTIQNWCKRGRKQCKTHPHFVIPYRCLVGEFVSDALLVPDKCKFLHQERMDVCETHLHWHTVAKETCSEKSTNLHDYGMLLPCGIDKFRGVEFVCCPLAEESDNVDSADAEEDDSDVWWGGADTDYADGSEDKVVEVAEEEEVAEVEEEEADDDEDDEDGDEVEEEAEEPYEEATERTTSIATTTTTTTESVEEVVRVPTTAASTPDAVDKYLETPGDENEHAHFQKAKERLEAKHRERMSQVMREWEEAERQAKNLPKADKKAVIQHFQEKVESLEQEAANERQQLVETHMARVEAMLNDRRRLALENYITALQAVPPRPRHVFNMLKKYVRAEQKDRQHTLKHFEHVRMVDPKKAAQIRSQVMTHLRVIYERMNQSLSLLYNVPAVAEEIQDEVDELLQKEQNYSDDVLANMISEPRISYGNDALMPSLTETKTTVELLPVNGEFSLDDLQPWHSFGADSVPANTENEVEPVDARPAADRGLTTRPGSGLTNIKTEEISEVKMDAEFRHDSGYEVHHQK
Procedure: Sf9 cells (ATCC CRL 1711) were grown in TMN-FH complete medium (Pharmingen) in suspension and infected at a multiplicity of infection of 2 with a titred stock of recombinant virus expressing human APP695. Conditioned media and/or cells were harvested 6 days after infection. Cells and debris were removed by centrifugation (at 1000 x g for 15 min).
Recombinant baculoviruses were produced according to published protocols. A fragment containing full-length APP 695 was subcloned into the baculovirus transfer vector pBlueBac3 (Invitrogen). The resulting recombinant vector was co-transfected with baculovirus DNA into sf9 cells. Recombinant APP expression was verified by Western blot hybridization using mouse MAb against human APP (Cat # MAB348, Millipore).
APPs was purified from baculovirus conditioned medium to >95% purity, as assessed by densitometry analysis of Coomassie stained SDS PAGE gels, by Arvys Proteins, Stamford, CT, using the following strategy. The conditioned medium proteins were purified by heparin-affinity chromatography, followed by two gel filtration chromatography steps over HiPrep Sephacryl S300 columns and two steps of anion exchange chromatography on HiTrapQ columns.
The binding affinities of peptides P1, scrambled P1, P4, P5, P7 and P8 for the soluble ectodomain of APP or control IgG were measured by biolayer interferometry on an Octet RED96 System (Pall FortéBio Corp., Menlo Park, CA). This system monitors interference of light reflected from two sources (an internal reflection surface and the liquid/solid interface of a fiber optic sensor) to measure the rate of binding of molecules to the biosensor surface.
Peptides were synthesized and biotinylated at the NH2-terminus by Dr. Michael Freydkin at Biopeptides, Inc., San Diego, CA, and purified to >95% by HPLC. Biotinylated peptides were loaded onto Streptavidin (SA) biosensors (Pall FortéBio Corp.) at empirically determined concentrations. All affinity measurements were carried out in Kinetics Buffer (KB) (1X PBS, 0.002% Tween-20, and 0.01% BSA) at 30°C. Typically, the biosensors were pre-equilibrated in KB for 120s, loaded with a biotinylated peptide at optimal concentrations and times, quenched with 10 μg/ml biocytin in KB for 180s, brought to baseline in KB for 120s and transferred to wells containing purified APPs (0–200 nM). Multiple negative controls were run for each peptide including association buffer only (no APP) or with IgG replacing APP. Binding kinetics were calculated using the FortéBio Data Analysis v7.1 software. The association (k on) and dissociation (k off) rate constants were obtained by fitting the association and dissociation data to a 1:1 model. Binding affinity, KD, was calculated as k off/k on.

[3] = test system: Aβ production in cell cultures; conditions: cells cultured in media containing excess of the FLAG-coupled NH2-terminal domain of PS-1 (residues 1–80), ref [13], cited from earlier work
From the text: In that work we had selected the NH2-t ... || Peptide P1, comprising the first 80 amino acids of PS-1, scrambled P1 and the two large oligopeptides corresponding to the two halves of the human P1 (peptides P2 and P3, Table 1), were first synthesized and tested in vitro for their effect on the production of Aβ40 and 42.

[4] = test system: IMR-32 human neuroblastoma cell-line (endogenous Aβ40 or 42 production); assay: Endogenous Aβ40 and 42 production in IMR-32 culture medium by ELISA; format: cell-based; conditions: for Effect on Aβ40 and 42 production in vitro (in words): 0–5 μM peptide, 24 h, IMR-32 culture medium, ELISA; for Production of total Aβ and of Aβ 40 and 42 (summary in words): Discussion summary, stated as in vitro and in vivo (mThy1-hAPP Tg mice)
Procedure: A human neuroblastoma cell-line, IMR-32 (ATCC CCL-127) was cultured in MEM Earles medium containing 10% fetal bovine serum, 2 mM L-glutamine in the presence of penicillin and streptomycin. Equal numbers of cells (0.3 x 10^6 per well) were plated on 6-well plates overnight. Peptides (0–5 μM) were added to fresh culture medium (500 μl per well) and left in the incubator for 24 hours, after which the culture medium from each well was removed and stored at -80°C in the presence of 4-(2-Aminoethyl) benzenesulfonyl fluoride hydrochloride (AEBSF) and protease inhibitors. Prior to use, the culture medium was centrifuged in an eppendorf microfuge for 5 min at 4°C, the supernatant diluted with an equal volume of sample diluent buffer (Wako) and analyzed for the presence of Aβ40 or 42 using a commercial ELISA kit (Wako).

[5] = test system: Aβ 1–40 and 1–42 in mThy1-hAPP mouse brains; assay: Aβ40- and Aβ42-specific ELISA of neocortex extracts of peptide-treated mThy1-hAPP mice; format: in vivo; conditions: vs PBS, 10 μM peptide infusion, two weeks then two weeks rest
Procedure: (§1) These mice express mutated (London V717I and Swedish K670M/N671L) hAPP751 under the control of the neuronal murine (m)Thy-1 promoter. […] The Tg lines were maintained by crossing heterozygous Tg mice with non-Tg wild type C57BL/6 x DBA/2 F1 breeders. All animal studies were carried out according to protocols approved by the Institutional Animal Care and Use Committee of the University of California San Diego.
Age-matched male and female mThy1-hAPP Tg mice at 6 months of age were anesthetized and under sterile conditions, a 26 gauge stainless steel cannula (Alzet Brain Infusion kit 3, Durect Corp) was stereotaxically implanted into the right ventricle using the following coordinates: –1 mm using Bregma as a reference, lateral, 1.0 mm, depth, -3.0 mm, and secured to the cranium using superglue. The cannula was connected via a 5 mm coil of V3 Biolab vinyl tubing to a model 1002 osmotic minipump (Alzet, Durect Corp) surgically placed subcutaneously beneath the shoulder blades and surgically closed. The solutions (each peptide at 10 μM in PBS) were delivered directly into lateral ventricles at a flow rate of 0.25 μl per hour (100 μl total volume) for two weeks. […]
Samples from mouse cortex and hippocampus were homogenized in ice-cold, 6 M guanidine-HCl according to published protocols. Quantification of Aβ 1–40 and 1–42 was carried out by ELISA kits (Invitrogen). […]

[6] = test system: Aβ deposits in mThy1-hAPP transgenic mice; assay: Plaque load / Aβ immunolabeling in brain sections of mThy1-hAPP Tg mice after intraventricular peptide infusion; format: in vivo, mouse; conditions: 10 μM in PBS, two weeks infusion then two weeks rest, vs PBS controls
Procedure: as §1, with “Diego. […]” for “Diego.”
For analysis of Aβ deposits, blind-coded 40 μm vibratome sections were immunolabeled as previously described with mouse monoclonal antibodies (MAb) against human Aβ (clone 82E1, prepared against Aβ 1–16) followed by incubation with fluorescein isothiocyanate (FITC)-conjugated anti-mouse IgG (Vector Laboratories). Sections were imaged with a laser scanning confocal microscope (MRC1024, BioRad) as described and digital images were analyzed with the NIH Image 1.43 program to determine the percent area occupied by Aβ deposits. Three immunolabeled sections were analyzed per mouse and the average of individual measurements was used to calculate group means. […]

[7] = test system: NICD (γ-secretase activity); assay: NICD levels in neocortex of treated mThy1-hAPP mice by Western blot (γ-secretase activity); format: in vivo, mouse; conditions: peptide-infused mThy1-hAPP mice vs PBS, n = 5, two weeks after end of treatment
Procedure: Extracts of neocortex of mThy1-hAPP mice treated with P4, P8 or PBS only were electrophoresed on SDS gels and Western blotted with primary rabbit antibodies against NICD (Cat# 07–1232, Millipore) at 4°C overnight, followed by horse-radish peroxidase (HRP)-conjugated goat anti-rabbit IgG (Bio-Rad). The immunoreactive bands were detected by chemiluminescence (Thermo Scientific).
An optimal therapeutic approach to AD would avoid producing serious effects on other biochemically and physiologically important processes, as would occur if the cleavages of any of the other substrates of β- or γ-secretase were affected in the process of reducing the levels of Aβ. An especially well-studied example is the γ-secretase activity of PS-1 that is critically involved in the final enzymatic cleavage of Aβ from APP; it also functions in an essential developmental process that generates NICD from Notch. […] At the same time we analyzed the same tissue samples for their β-secretase (BACE-1) activity and APP expression. Extracts were prepared of the neocortex of Tg mice that had been treated with P4, P8 or PBS, and the levels of NICD were determined by Western blot analysis with a primary rabbit Ab against NICD. […]

## CC(C)[C@H](O)C(=O)N[C@@H](C)C(=O)N[C@@H]1C(=O)N(C)CCc2ccccc21 [Semagacestat, reference compound]
[1]; 0–100 nM, n = 2
  NICD levels in Jurkat cells, γ-secretase inhibitor (in words): inhibited in a dose-dependent manner

## DEEEDEELTLKYGAK [Peptide P7]
[2]; Kinetics Buffer
  koff: 0.00105 s⁻¹
  kon: 104000 M⁻¹ s⁻¹
[2]
  Kd: 10.1 nM

## FLAG-PS-1 (residues1-80): bacterially produced FLAG-PS-1 (residues1-80)
[3]
  Aβ production (in words): robust inhibition of Aβ
[3]; listed as NH2-terminal domain of PS-1 (residues 1–80) coupled to the FLAG protein
  Aβ production (in words): markedly inhibited

## PEPLSNGRP [Peptide P10, residues 47–55 of PS-1, fragment of P4]
[4]
  Effect on Aβ40 and 42 production in vitro (in words): did not give a significant reduction in Aβ in vitro; also recorded: had not shown a reduction of Aβ in vitro
[5]
  Aβ40/42 in neocortex extracts by ELISA (in words): gave reductions in Aβ load, but to a lesser extent
[6]
  Aβ immunolabeling / Aβ load in mouse brain (in words): less effective but still produced statistically significant reductions in Aβ levels compared to PBS controls in the neocortex

## RQVVEQDEEEDEELT [Peptide P6, residues 60–74 of PS-1]
[4]
  Effect on Aβ40 and 42 production in vitro (in words): substantial dose-dependent reduction in Aβ40 and 42
  Production of total Aβ and of Aβ 40 and 42 (summary in words): markedly reducing the production of total Aβ and of Aβ 40 and 42 in vitro and in vivo

## RRSLGH [Peptide P9, residues 41–46 of PS-1, fragment of P4]
[4]
  Effect on Aβ40 and 42 production in vitro (in words): did not give a significant reduction in Aβ in vitro; also recorded: had not shown a reduction of Aβ in vitro
[5]
  Aβ40/42 in neocortex extracts by ELISA (in words): gave reductions in Aβ load, but to a lesser extent
[6]
  Aβ immunolabeling / Aβ load in mouse brain (in words): less effective but still produced statistically significant reductions in Aβ levels compared to PBS controls in the neocortex

## RRSLGHPEPLSNGRP [Peptide P4]
[1]; 0–10 μM, 450 nm, n = 2–3
  NICD levels in Jurkat cells, peptides (in words): no appreciable change in the levels of NICD
[2]; Kinetics Buffer
  koff: 0.00134 s⁻¹
  kon: 83600 M⁻¹ s⁻¹
[2]
  Kd: 16.1 nM
[7]
  NICD levels in neocortex (in words): not accompanied by any significant changes in the levels of NICD

## SNGRPQGNSRQVVEQ [Peptide P5, residues 51–65 of PS-1]
[4]
  Effect on Aβ40 and 42 production in vitro (in words): no significant effect on Aβ production
  Production of total Aβ and of Aβ 40 and 42 (summary in words): did not reduce Aβ
[2]; Kinetics Buffer
  Binding to purified APPs (in words): no significant binding to APP
